Earlier results as cited in US20100022659A1, “Methods and Compositions for the Treatment of CNS-Related Conditions” (priority 2004, published 2010).
Where two headings read alike, the source gives them in different places.

Conditions: humans, cited from earlier work
[1] = MAO inhibitors/GAPDHais, Table 2

Compound | Human PK (NMDAr antagonists, Table 1) [h] | Human PK [1] [h]
CC12CC3CC(C)(C1)CC(N)(C3)C2 [Memantine, 1-amino-3,5-dimethyladamantane] | 56 | –
C#CCN[C@@H]1CCc2ccccc21 [N-propargyl-1(R)-aminoindan/Rasageline, N-propargyl-1(R)-aminoindan] | – | 1.8
CC(N)C12CC3CC(CC(C3)C1)C2 (stereo not shown) [Rimantadine, 1-(1-aminoethyl)adamantane] | 25 | –
Desmethyldeprenyl | – | 3.8 to 9.5
